How the values were obtained:
ROCK2 [1] = biological target: T1, ROCK2 (Homo sapiens, UniProt O75116); test: MLC phosphorylation in MDA-MB-231 cells expressing doxycycline-induced ROCK2 kinase domain (quantitative western blot); parameters: The kinase domains of MRCKβ (1–473), ROCK1 (1–535) or ROCK2 (1–532) were gene synthesized; expressed in transfected cells; host or cells: MDA-MB-231 D3H2LN-Luc Tet3G cells, pTRE3G-ROCK2 (1–532); details: doxycycline-induced MDA-MB-231, 60 minutes treatment; read-out: cell based EC50, MLC phosphorylation induced by ROCK2
Procedure: (A) MDA-MB-231 breast cancer cells expressing doxycycline inducible ROCK1, ROCK2 or MRCKβ kinase domains were established as indicated. Following treatment with doxycycline for 18 hours to induce expression, cell lysates were western blotted with antibodies as indicated.
MDA-MB-231 D3H2LN-Luc cells (Caliper LifeScience) were grown in MEM/EBSS (Hyclone) supplemented with 10% fetal bovine serum (FBS) (Gibco), 1 mM Sodium Pyruvate (Sigma) 2 mM L-glutamine (Gibco), 1× MEM non-essential amino acids (Gibco) plus penicillin-streptomycin (10 Units/ml and 10 μg/ml respectively) at 37°C in 5% CO2 in a humidified incubator. MDA-MB-231 D3H2LN-Luc TetOn MRCKβ, ROCK1 and ROCK2 selective cell lines were grown in the same media with 10% FBS replaced with 10% Tet System Approved FBS (Clontech).
The kinase domains of MRCKβ (1–473), ROCK1 (1–535) or ROCK2 (1–532) were gene synthesized (Genscript) and subcloned into pTRE3G (Clontech). MDA-MB-231 D3H2LN-Luc Tet3G cells were co-transfected with pTRE3G-MRCKβ (1–473), pTRE3G-ROCK1 (1–535) or pTRE3G-ROCK2 (1–532), together with a linear Pur^r-selection marker using Xfect transfection reagent according to manufacturer’s instructions. […] Each clone was treated with or without doxycycline (1 μg/ml) for 24 hours and kinase domain expression and activity determined by western blotting. […]
Target sequence in this assay (O75116 1-532): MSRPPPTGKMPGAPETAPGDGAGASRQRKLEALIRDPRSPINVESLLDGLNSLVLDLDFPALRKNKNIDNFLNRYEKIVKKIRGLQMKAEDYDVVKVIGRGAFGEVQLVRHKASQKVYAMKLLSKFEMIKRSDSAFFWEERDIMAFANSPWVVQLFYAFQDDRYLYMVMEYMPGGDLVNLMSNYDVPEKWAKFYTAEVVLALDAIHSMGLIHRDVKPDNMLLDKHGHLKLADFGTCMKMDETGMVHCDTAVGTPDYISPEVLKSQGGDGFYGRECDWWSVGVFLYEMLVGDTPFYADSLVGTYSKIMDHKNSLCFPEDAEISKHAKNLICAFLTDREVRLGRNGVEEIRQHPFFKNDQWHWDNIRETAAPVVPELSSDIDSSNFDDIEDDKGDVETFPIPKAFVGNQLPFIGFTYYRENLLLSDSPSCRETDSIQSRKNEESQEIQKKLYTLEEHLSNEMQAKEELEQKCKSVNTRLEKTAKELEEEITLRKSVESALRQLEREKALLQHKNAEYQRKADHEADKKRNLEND

PhKγ2 = biological target: T2, PhKγ2 (Homo sapiens, UniProt P15735); test: Kinase selectivity profiling (Eurofins), PhKγ2; assay type: biochemical
T2 construct: purchased Eurofins
T2 sequence (P15735 1-406): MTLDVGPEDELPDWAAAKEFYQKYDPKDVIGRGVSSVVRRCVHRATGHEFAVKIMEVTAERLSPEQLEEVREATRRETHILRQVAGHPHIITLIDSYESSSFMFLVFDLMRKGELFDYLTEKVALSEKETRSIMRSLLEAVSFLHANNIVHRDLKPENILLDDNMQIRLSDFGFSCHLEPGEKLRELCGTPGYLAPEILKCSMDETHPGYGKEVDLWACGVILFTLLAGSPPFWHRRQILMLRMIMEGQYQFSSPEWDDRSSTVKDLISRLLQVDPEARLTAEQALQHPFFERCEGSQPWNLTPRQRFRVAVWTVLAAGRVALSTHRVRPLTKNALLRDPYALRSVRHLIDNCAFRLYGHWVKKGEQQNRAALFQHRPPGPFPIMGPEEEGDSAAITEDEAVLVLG
Excerpt: (§1) The results of this screening were mapped over the annotated human kinome phylogenetic tree using Kinome Render (Figure 2).
(§2) Kinases inhibited less than 25% have their names in green text. Kinases inhibited >25% and ≤50% have yellow circles, >50% and ≤75% have orange circles, and >75% have red circles. In each case, the size of the circle is proportional to the percentage inhibition. ROCK1 and MRCKα positions are indicated on the tree for orientation purposes. Illustration reproduced courtesy of Cell Signaling Technology, Inc. (www.cellsignal.com).
(§3) MRCKα, MRCKβ, ROCK1 and ROCK2 assays were performed using an IMAP fluorescence polarization assay format (Molecular Devices Inc.). 8–12 nM of each kinase (Life Technologies) was incubated for 60 min at room temperature with 100 nM FAM-S6-ribosomal protein derived peptide (synthesized by Alta Biosciences, University of Birmingham UK) in the presence of 1 μM ATP and 0.5 mM MgCl2 in 20 mM Tris buffer (pH 7.4) containing 0.01% Tween-20 and 1 mM DTT (MRCKα and β); or 1 μM ATP, 10 mM MgCl2 in 20 mM Tris buffer (pH 7.5) containing 0.25 mM EGTA 0.01% Triton X-100 and 1 mM DTT (ROCK1 and ROCK2). […] After 30 min incubation to allow binding reagent to bind phosphorylated peptide, fluorescence polarization was measured on a Tecan Saphire^2 plate reader at excitation (470 nm) and emission (530 nm) wavelengths. […]

ROCK2 [2] = biological target: T1, ROCK2; test: IMAP fluorescence polarization kinase assay, ROCK2; assay type: biochemical; parameters: purchased Life Technologies; details: in vitro, 1 μM ATP
Procedure: (§4) MRCKα, MRCKβ, ROCK1 and ROCK2 assays were performed using an IMAP fluorescence polarization assay format (Molecular Devices Inc.). 8–12 nM of each kinase (Life Technologies) was incubated for 60 min at room temperature with 100 nM FAM-S6-ribosomal protein derived peptide (synthesized by Alta Biosciences, University of Birmingham UK) in the presence of 1 μM ATP and 0.5 mM MgCl2 in 20 mM Tris buffer (pH 7.4) containing 0.01% Tween-20 and 1 mM DTT (MRCKα and β); or 1 μM ATP, 10 mM MgCl2 in 20 mM Tris buffer (pH 7.5) containing 0.25 mM EGTA 0.01% Triton X-100 and 1 mM DTT (ROCK1 and ROCK2). Typically, dose response analyses were performed over concentration ranges from 0.005 - 100 μM. Reactions were stopped by adding 2 assay volumes of 0.25% (v/v) IMAP binding reagent in 1× IMAP binding buffer A (Molecular Devices). After 30 min incubation to allow binding reagent to bind phosphorylated peptide, fluorescence polarization was measured on a Tecan Saphire^2 plate reader at excitation (470 nm) and emission (530 nm) wavelengths. Inhibition was calculated using no inhibitor and no enzyme controls as 0 and 100% inhibition, respectively.
Target sequence in this assay (O75116 whole entry, the tested form may be a part): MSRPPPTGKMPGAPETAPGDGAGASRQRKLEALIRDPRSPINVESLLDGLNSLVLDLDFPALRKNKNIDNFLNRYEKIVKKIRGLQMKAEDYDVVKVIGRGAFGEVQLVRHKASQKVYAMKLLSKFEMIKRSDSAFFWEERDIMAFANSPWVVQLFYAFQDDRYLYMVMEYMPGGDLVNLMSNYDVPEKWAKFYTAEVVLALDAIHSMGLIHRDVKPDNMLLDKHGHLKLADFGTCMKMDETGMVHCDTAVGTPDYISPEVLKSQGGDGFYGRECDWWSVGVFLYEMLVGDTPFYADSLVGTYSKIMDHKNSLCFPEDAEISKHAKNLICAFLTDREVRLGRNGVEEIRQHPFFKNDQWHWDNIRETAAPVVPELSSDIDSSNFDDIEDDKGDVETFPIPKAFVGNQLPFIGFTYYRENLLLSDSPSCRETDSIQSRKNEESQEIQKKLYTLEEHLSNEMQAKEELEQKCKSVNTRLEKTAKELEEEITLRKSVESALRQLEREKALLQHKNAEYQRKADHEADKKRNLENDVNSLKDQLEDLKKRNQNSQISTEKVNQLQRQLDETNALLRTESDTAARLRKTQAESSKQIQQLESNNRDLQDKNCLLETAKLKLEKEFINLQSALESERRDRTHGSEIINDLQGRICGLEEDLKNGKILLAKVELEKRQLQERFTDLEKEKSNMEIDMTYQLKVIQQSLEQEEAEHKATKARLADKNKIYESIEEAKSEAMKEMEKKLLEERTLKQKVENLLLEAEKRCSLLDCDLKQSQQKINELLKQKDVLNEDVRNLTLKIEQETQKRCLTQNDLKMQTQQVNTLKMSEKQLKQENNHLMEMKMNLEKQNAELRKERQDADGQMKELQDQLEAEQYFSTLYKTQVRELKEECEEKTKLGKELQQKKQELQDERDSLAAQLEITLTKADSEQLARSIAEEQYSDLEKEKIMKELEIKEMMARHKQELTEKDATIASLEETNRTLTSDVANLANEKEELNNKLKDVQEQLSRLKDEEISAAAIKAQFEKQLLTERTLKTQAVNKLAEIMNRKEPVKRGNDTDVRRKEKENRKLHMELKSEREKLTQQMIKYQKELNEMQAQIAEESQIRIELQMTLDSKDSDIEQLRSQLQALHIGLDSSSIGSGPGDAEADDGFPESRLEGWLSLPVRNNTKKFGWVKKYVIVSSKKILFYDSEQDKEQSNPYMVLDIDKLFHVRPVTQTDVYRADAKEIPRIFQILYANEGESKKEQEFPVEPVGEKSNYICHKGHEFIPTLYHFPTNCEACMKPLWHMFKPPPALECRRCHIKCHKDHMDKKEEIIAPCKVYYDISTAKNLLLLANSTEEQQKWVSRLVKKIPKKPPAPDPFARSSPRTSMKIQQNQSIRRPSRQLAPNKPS

PKAα = biological target: T3, PKAα (Homo sapiens, UniProt P17612); test: Kinase selectivity profiling (Eurofins), PKAα; assay type: biochemical
T3 construct: purchased Eurofins
Excerpt: as §1, §2, §3

MRCKα = MRCKα (Homo sapiens, UniProt Q5VT25); test: IMAP fluorescence polarization kinase assay, MRCKα; assay type: biochemical; details: calculated with Cheng-Prusoff equation
Procedure: as §4

logD = assay type: physicochemical
ROCK1 = ROCK1 (Homo sapiens, UniProt Q13464); test: IMAP fluorescence polarization kinase assay, ROCK1; assay type: biochemical; parameters: purchased Life Technologies; details: in vitro, 1 μM ATP
Chain of ROCK1 (Q13464 whole entry): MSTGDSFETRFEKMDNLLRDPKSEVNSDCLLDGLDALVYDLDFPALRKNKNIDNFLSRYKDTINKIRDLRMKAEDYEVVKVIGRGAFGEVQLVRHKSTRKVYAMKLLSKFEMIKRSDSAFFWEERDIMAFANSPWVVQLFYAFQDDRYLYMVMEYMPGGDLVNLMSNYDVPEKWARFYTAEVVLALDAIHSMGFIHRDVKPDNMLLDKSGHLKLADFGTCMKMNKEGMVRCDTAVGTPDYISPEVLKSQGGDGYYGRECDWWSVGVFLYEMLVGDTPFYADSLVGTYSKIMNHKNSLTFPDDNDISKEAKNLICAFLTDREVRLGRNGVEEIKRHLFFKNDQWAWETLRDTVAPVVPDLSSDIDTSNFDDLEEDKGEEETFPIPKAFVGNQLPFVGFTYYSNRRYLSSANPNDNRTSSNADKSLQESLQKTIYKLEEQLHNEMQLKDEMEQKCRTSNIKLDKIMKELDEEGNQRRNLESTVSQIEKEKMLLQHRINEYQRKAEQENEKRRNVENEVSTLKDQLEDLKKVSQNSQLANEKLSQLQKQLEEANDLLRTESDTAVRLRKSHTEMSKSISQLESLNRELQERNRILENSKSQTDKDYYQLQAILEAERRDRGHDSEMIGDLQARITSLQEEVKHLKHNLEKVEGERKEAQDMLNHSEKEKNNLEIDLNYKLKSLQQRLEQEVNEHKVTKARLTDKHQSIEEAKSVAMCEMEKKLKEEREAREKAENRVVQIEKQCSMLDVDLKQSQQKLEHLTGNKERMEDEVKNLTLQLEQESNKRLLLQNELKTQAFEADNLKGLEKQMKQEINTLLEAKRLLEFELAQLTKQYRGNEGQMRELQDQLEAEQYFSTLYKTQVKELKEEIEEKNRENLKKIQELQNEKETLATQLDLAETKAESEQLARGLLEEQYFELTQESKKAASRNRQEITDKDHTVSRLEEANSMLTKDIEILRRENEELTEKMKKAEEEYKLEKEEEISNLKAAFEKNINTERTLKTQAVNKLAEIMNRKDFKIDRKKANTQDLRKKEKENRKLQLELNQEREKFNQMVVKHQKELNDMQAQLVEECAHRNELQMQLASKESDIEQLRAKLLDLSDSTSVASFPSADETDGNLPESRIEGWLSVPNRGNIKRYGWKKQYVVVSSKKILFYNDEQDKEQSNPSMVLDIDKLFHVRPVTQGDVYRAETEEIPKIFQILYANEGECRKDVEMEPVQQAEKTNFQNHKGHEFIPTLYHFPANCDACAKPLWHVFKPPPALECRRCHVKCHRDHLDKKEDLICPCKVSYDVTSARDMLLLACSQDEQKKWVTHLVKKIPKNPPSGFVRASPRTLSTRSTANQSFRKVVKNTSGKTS
Procedure: as §4

MRCKβ = biological target: T4, MRCKβ (Homo sapiens, UniProt Q9Y5S2); test: IMAP fluorescence polarization kinase assay, MRCKβ; assay type: biochemical; details: in vitro, 1 μM ATP
T4 construct: purchased Life Technologies
T4 sequence (Q9Y5S2 whole entry): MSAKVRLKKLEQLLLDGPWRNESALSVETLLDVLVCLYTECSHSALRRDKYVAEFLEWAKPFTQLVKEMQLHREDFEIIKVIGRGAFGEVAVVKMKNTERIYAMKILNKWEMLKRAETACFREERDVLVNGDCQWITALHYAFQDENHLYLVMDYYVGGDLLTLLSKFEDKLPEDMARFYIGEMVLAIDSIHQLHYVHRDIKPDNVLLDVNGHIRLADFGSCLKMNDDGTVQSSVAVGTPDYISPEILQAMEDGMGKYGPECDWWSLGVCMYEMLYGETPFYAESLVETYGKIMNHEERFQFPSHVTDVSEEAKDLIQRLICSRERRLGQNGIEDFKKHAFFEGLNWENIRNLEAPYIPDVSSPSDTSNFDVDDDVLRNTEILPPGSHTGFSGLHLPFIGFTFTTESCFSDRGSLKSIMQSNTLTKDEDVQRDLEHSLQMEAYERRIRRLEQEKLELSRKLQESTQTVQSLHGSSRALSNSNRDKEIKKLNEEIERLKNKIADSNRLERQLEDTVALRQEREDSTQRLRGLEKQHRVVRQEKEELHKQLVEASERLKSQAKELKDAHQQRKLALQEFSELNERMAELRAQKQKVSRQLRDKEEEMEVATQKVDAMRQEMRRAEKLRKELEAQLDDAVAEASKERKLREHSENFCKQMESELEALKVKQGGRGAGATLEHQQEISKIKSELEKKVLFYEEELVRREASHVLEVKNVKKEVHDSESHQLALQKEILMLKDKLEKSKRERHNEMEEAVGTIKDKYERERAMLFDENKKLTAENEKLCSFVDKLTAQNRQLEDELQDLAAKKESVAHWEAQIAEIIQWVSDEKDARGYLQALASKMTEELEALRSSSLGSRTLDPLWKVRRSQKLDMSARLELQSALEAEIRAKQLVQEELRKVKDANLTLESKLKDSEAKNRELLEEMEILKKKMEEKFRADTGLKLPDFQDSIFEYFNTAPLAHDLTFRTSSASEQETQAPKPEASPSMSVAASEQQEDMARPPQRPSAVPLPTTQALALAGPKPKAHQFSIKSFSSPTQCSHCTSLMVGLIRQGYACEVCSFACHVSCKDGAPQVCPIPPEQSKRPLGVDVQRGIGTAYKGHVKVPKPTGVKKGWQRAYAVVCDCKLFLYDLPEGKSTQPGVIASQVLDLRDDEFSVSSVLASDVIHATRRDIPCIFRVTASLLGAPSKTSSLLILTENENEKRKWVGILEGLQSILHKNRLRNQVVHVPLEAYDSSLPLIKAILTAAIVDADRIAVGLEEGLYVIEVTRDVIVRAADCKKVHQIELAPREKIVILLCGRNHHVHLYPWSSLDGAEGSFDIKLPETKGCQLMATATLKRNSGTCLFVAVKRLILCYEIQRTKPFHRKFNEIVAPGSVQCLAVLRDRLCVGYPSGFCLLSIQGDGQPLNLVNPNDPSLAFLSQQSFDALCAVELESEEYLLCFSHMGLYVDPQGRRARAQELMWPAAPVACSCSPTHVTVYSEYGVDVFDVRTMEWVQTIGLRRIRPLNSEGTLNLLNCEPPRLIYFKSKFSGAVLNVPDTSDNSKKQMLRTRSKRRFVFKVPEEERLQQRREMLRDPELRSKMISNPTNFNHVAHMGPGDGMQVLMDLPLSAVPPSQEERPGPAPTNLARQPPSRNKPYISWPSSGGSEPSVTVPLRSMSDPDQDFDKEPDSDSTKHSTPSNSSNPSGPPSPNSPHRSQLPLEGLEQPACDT
Procedure: as §4

EC50 (ROCK2 [1]) [nM]	inhibition at 10 µM (PhKγ2) [%]	IC50 (ROCK2 [2]) [nM]	inhibition at 10 µM (PKAα) [%]	Ki (MRCKα) [nM]	logD (logD)	IC50 (ROCK1) [nM]	IC50 (MRCKβ) [nM]	Structure (SMILES)
447	> 75	123	> 75	10	0.786	230	–	O=C(Nc1cn[nH]c1-c1ccccn1)c1nn(C2CCNCC2)cc1Cl [BDP5290, 4-chloro-1-(4-piperidyl)-N-[5-(2-pyridyl)-1H-pyrazol-4-yl]pyrazole-3-carboxamide]
–	–	–	–	–	–	–	1450	C[C@@H](N)[C@H]1CC[C@H](C(=O)Nc2ccncc2)CC1 [Y27632, reference compound]

Source: publication PMC4195943, “A novel small-molecule MRCK inhibitor blocks cancer cell invasion” (Cell Communication and Signaling : CCS, 2014)
